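Cells were grown in 96-well plates and exposed to each compound for 48 hours at five concentrations; endpoints were interpolated linearly between bracketing concentrations, or set to the highest concentration if not reached. At the TGI there is no net growth.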
tested on: A549 NSCLC; assay: NCI-60 cell line screen, 48 h

`O=c1c2ccccc2nc(-c2ccccc2)n1NC(=S)Nc1cccc(Cl)c1` and `O=C(Cc1ccccc1)NN1C(=O)/C(=C\c2ccccc2O)SC1=Nc1ccccc1` cannot be ordered by TGI: greater than 100 µM for the first, greater than 100 µM for the second.

`CCn1c2ccccc2c2cc(Nc3cc(C)[nH]c(=O)n3)ccc21` and `Cc1ccccc1NC(=O)Cc1csc(N=Nc2c(O)[nH]c3ccccc23)n1` cannot be ordered by TGI: greater than 100 µM for the first, greater than 100 µM for the second.

`C(#Cc1ccccc1)SC1=C(c2ccccc2)S/C(=C(\SC#Cc2ccccc2)c2ccccc2)S1` and `FC(F)(F)c1ccc2nc(Sc3ccc4ccccc4c3)cnc2c1` cannot be ordered by TGI: greater than 100 µM for the first, greater than 100 µM for the second.

`COC(=O)c1cc(/C=C\c2cc(OC)ccc2OC)ccc1OC` and `COc1ccc2c(c1)CCC/C2=N\NS(=O)(=O)c1c(C)cc(C)cc1C` cannot be ordered by TGI: greater than 100 µM for the first, greater than 100 µM for the second.

`CCOC(=O)C(C(=O)COC(C)(C)C)[C@@H]1C=C[C@H](OC(C)=O)C1` (stereo not given in full) and `CCOC(=O)CC(NC(=O)c1ccc(N=NN(C)C)cc1)C(=O)OCC` (stereo not given) cannot be ordered by TGI: greater than 100 µM for the first, greater than 100 µM for the second.

`CN(C)CN(C)c1nc(N(C)C)nc(N(C)CN(C)C)n1` and `CC(C)[Si](OCC1CC(C#N)OC(C)(C)O1)(C(C)C)C(C)C` (stereo not given) cannot be ordered by TGI: greater than 100 µM for the first, greater than 100 µM for the second.

Compared with `CSCCCNC(=O)[C@H](CSC)NC(=O)c1csc(CCNC(=O)[C@@H](NSc2ccccc2[N+](=O)[O-])C(C)O)n1` (stereo not given in full), `CC(=O)OCC1OC(n2c(-c3ccccc3)c(N=Nc3ccc(C)cc3)c(C)c(C#N)c2=S)C(OC(C)=O)C(OC(C)=O)C1OC(C)=O` (stereo not given) is lower in TGI: greater than 100 µM for the first, 47 µM for the second.

`CN(C)/C=C/C=C(/C=N/S(=O)(=O)C(F)(F)F)C1C=CN(S(=O)(=O)C(F)(F)F)C=C1` and `O=C(Nc1ccc(Cl)cc1)c1cc(S(=O)(=O)Nc2n[nH]c(=O)n2-c2ccccc2)c(S)cc1Cl` cannot be ordered by TGI: greater than 100 µM for the first, greater than 100 µM for the second.

Compared with `Cc1ccc(S(=O)(=O)Nn2c(O)c(C#N)c(-c3ccc([N+](=O)[O-])cc3)c(C#N)c2=O)cc1`, `CC(=O)Nc1ccc(-c2nnc(SCC(=O)Nc3ccc(Cl)cc3)o2)cc1` is lower in TGI: greater than 100 µM for the first, 32 µM for the second.

`COc1ccc2c([nH]c3c(O)c(-c4c(C)cc5c([nH]c6c(CC=C(C)C)c(OC)ccc65)c4O)c(C)cc32)c1CC=C(C)C` and `Cc1csc(-n2c(C)nc3cc(Cl)ccc3c2=O)n1` cannot be ordered by TGI: greater than 100 µM for the first, greater than 100 µM for the second.

`COc1ccc(-n2cnc3c(NC(Cc4ccccc4)C(=O)O)ncnc32)cc1` (stereo not given) and `Cc1ccc(/C=C2/N=C(N/N=C\c3ccccc3)NC2=O)cc1` cannot be ordered by TGI: greater than 100 µM for the first, greater than 100 µM for the second.

`CN1CCC2(CC1)C(=NC1CCCCC1)NC(=O)N2c1ccccc1` and `CC(C)=NOC(=O)Nc1cccc2c1OCO2` cannot be ordered by TGI: greater than 100 µM for the first, greater than 100 µM for the second.

tested on: ACHN renal; assay: NCI-60 cell line screen, 48 h

Compared with `O=C1CC(c2ccccc2)S(=O)c2ccccc2N1` (stereo not given), `Cc1ccc(/C=C2/N=C(N/N=C\c3ccccc3)NC2=O)cc1` is lower in TGI: greater than 100 µM for the first, 38.4 µM for the second.

`CC1(C)CC(=O)C2=C(C1)OC1(CC2c2ccc(Cl)cc2)CC(c2ccc(Cl)cc2)C2=C(CC(C)(C)CC2=O)O1` (stereo not given) and `CC(=O)Nc1ccc(-c2nnc(SCC(=O)Nc3ccc(Cl)cc3)o2)cc1` are within 1.5-fold of each other in TGI: 38.9 µM for the first, 28.5 µM for the second.

`O=C(O)c1ccc(N/C(=C(/C(Cl)=C(Cl)Cl)[N+](=O)[O-])n2nnc3ccccc32)cc1` and `O=c1c2ccccc2nc(-c2ccccc2)n1NC(=S)Nc1cccc(Cl)c1` cannot be ordered by TGI: greater than 100 µM for the first, greater than 100 µM for the second.

`CCn1c2ccccc2c2cc(Nc3cc(C)[nH]c(=O)n3)ccc21` and `Cc1ccccc1NC(=O)Cc1csc(N=Nc2c(O)[nH]c3ccccc23)n1` cannot be ordered by TGI: greater than 100 µM for the first, greater than 100 µM for the second.

`C(#Cc1ccccc1)SC1=C(c2ccccc2)S/C(=C(\SC#Cc2ccccc2)c2ccccc2)S1` and `O=C(Cc1ccccc1)NN1C(=O)/C(=C\c2ccccc2O)SC1=Nc1ccccc1` cannot be ordered by TGI: greater than 100 µM for the first, greater than 100 µM for the second.

`COC(=O)c1cc(/C=C\c2cc(OC)ccc2OC)ccc1OC` and `COc1ccc2c(c1)CCC/C2=N\NS(=O)(=O)c1c(C)cc(C)cc1C` cannot be ordered by TGI: greater than 100 µM for the first, greater than 100 µM for the second.

`CCOC(=O)C(C(=O)COC(C)(C)C)[C@@H]1C=C[C@H](OC(C)=O)C1` (stereo not given in full) and `CCOC(=O)CC(NC(=O)c1ccc(N=NN(C)C)cc1)C(=O)OCC` (stereo not given) cannot be ordered by TGI: greater than 100 µM for the first, greater than 100 µM for the second.

Going from `CN(C)CN(C)c1nc(N(C)C)nc(N(C)CN(C)C)n1` to `CC(C)[Si](OCC1CC(C#N)OC(C)(C)O1)(C(C)C)C(C)C` (stereo not given), the TGI falls from greater than 100 µM to 29.4 µM.

`CSCCCNC(=O)[C@H](CSC)NC(=O)c1csc(CCNC(=O)[C@@H](NSc2ccccc2[N+](=O)[O-])C(C)O)n1` (stereo not given in full) and `CC(=O)OCC1OC(n2c(-c3ccccc3)c(N=Nc3ccc(C)cc3)c(C)c(C#N)c2=S)C(OC(C)=O)C(OC(C)=O)C1OC(C)=O` (stereo not given) cannot be ordered by TGI: greater than 100 µM for the first, greater than 100 µM for the second.

Going from `CN(C)/C=C/C=C(/C=N/S(=O)(=O)C(F)(F)F)C1C=CN(S(=O)(=O)C(F)(F)F)C=C1` to `FC(F)(F)c1ccc2nc(Sc3ccc4ccccc4c3)cnc2c1`, the TGI rises from 84.7 µM to greater than 100 µM.

`Cc1ccc(S(=O)(=O)Nn2c(O)c(C#N)c(-c3ccc([N+](=O)[O-])cc3)c(C#N)c2=O)cc1` and `Cc1csc(-n2c(C)nc3cc(Cl)ccc3c2=O)n1` cannot be ordered by TGI: greater than 100 µM for the first, greater than 100 µM for the second.

`COc1ccc2c([nH]c3c(O)c(-c4c(C)cc5c([nH]c6c(CC=C(C)C)c(OC)ccc65)c4O)c(C)cc32)c1CC=C(C)C` and `COc1ccc(-n2cnc3c(NC(Cc4ccccc4)C(=O)O)ncnc32)cc1` (stereo not given) cannot be ordered by TGI: greater than 100 µM for the first, greater than 100 µM for the second.

`CN1CCC2(CC1)C(=NC1CCCCC1)NC(=O)N2c1ccccc1` and `CC(C)=NOC(=O)Nc1cccc2c1OCO2` cannot be ordered by TGI: greater than 100 µM for the first, greater than 100 µM for the second.

tested on: CCRF-CEM leukemia; assay: NCI-60 cell line screen, 48 h

`O=C1CC(c2ccccc2)S(=O)c2ccccc2N1` (stereo not given) and `O=c1c2ccccc2nc(-c2ccccc2)n1NC(=S)Nc1cccc(Cl)c1` cannot be ordered by TGI: greater than 100 µM for the first, greater than 100 µM for the second.

`CC1(C)CC(=O)C2=C(C1)OC1(CC2c2ccc(Cl)cc2)CC(c2ccc(Cl)cc2)C2=C(CC(C)(C)CC2=O)O1` (stereo not given) and `O=C(O)c1ccc(N/C(=C(/C(Cl)=C(Cl)Cl)[N+](=O)[O-])n2nnc3ccccc32)cc1` cannot be ordered by TGI: greater than 76.7 µM for the first, greater than 100 µM for the second.

Molecule `C(#Cc1ccccc1)SC1=C(c2ccccc2)S/C(=C(\SC#Cc2ccccc2)c2ccccc2)S1` has a TGI greater than 100 µM.

From PubChem BioAssay (NCI)
